Conditions: not given

Point of comparison: `Clc1ccc2ncccc2c1`, boiling point 263 °C. Against it:
- CCCCCC(=O)OCCC(C)C — lower, 226 °C
- OCCN1CC1 — lower, 168 °C
- O=C(Cc1ccccc1)c1ccccc1 — higher, 320 °C
- CCCC1CCCC(C)C1 (stereo not drawn) — lower, 164 °C
- O=C(c1ccccc1)c1ccc(-c2ccccc2)cc1 — higher, 420 °C
- COc1ccccc1Br — lower, 216 °C
- CCC(C)(CC)c1ccccc1 — lower, 205 °C
- CCCCCCCCOC(=O)CCC — lower, 244 °C
- CCC(CC)C(C)(C)C — lower, 134 °C
- Cc1cc(Cl)ccc1Cl — lower, 200 °C
- Cc1cc(C)c(N)cc1C — lower, 234 °C
- C1COCCO1 — lower, 102 °C
- CC(O)COC(C)C (stereo not drawn) — lower, 138 °C
- CC1CCCCC1=O (stereo not drawn) — lower, 162 °C
- FC(F)(F)C(F)(F)C(F)(F)F — lower, -36.6 °C
- CCC=C(C)CC — lower, 112 °C
- CCCCCCC(=O)OCCCC — lower, 226 °C
- C1CC[C@@H]2NCCC[C@@H]2C1 — lower, 206 °C
- COC(=O)OC — lower, 90.5 °C
- CCC(Br)CC — lower, 119 °C
- C=C(C)c1cccc(C(=C)C)c1 — lower, 231 °C
- CC(=O)CCC=C(C)C — lower, 174 °C
- Cc1ccc2c(c1C)CCCC2 — lower, 252 °C
- CCOC(C)OCC — lower, 102 °C
- CCC(Cc1ccccc1)c1ccccc1 (stereo not drawn) — higher, 290 °C
- CC1CCC2CC1C2(C)C (stereo not drawn) — lower, 160 °C
- OCc1cccc(F)c1 — lower, 201 °C
- CCOc1cccc([N+](=O)[O-])c1 — higher, 264 °C
- Brc1ccc2cccnc2c1 — higher, 290 °C
- NCCNCCNCCN — higher, 266 °C
- ICCI — lower, 200 °C

Point of comparison: `COC(=O)OC`, log10 vapour pressure (mmHg) 1.74. Against it:
- CC(C)C(C(=O)OC(C#N)c1cccc(Oc2ccc(Br)cc2)c1)c1ccc(OC(F)F)cc1 (stereo not drawn) — lower, -8.92
- O=C(Cc1ccccc1)c1ccccc1 — lower, -3.74
- CC1=C(C)S(=O)(=O)CCS1(=O)=O — lower, -6.42
- CCC(CC)C(C)(C)C — lower, 1.05
- Cc1cc(C)c(N)cc1C — lower, -2.05
- C1COCCO1 — within 0.2 log units, 1.58
- CC1CCCCC1=O (stereo not drawn) — lower, 0.352
- FC(F)(F)C(F)(F)C(F)(F)F — higher, 3.82
- CCC=C(C)CC — within 0.2 log units, 1.91
- CNC(=O)O/N=C/C(C)(C)S(C)(=O)=O — lower, -4.05
- CCOC(C)OCC — lower, 1.44

Point of comparison: `CCOc1cccc([N+](=O)[O-])c1`, melting point 36 °C. Against it:
- Cc1c(C(N)=O)cc([N+](=O)[O-])cc1[N+](=O)[O-] — higher, 177 °C
- O=C(Cc1ccccc1)c1ccccc1 — higher, 60 °C
- CCCCCCN1CC(C(=O)OC)CC1=O (stereo not drawn) — lower, 4 °C
- O=C(c1ccccc1)c1ccc(-c2ccccc2)cc1 — higher, 100 °C
- COc1ccccc1Br — lower, 2.5 °C
- C=CCN1CC[C@]23c4c5ccc(O)c4O[C@H]2[C@@H](O)C=C[C@H]3[C@H]1C5 — higher, 208 °C
- CC1=C(C)S(=O)(=O)CCS1(=O)=O — higher, 165 °C
- CCCCCCCCCCCCCCCCCC(=O)OCCO — higher, 60.5 °C
- CCCCCCCCOC(=O)CCC — lower, -55.6 °C
- CCC(CC)C(C)(C)C — lower, -99.3 °C
- N[C@@H](CSCC(=O)O)C(=O)O — higher, 206 °C
- Cc1cc(Cl)ccc1Cl — lower, 5 °C
- Cc1cc(C)c(N)cc1C — higher, 68 °C
- C1COCCO1 — lower, 11.8 °C
- O=C(Cl)CCCCCCCCC(=O)Cl — lower, -2.5 °C
- COc1cc([C@@H]2c3cc4c(cc3C(O[C@@H]3O[C@@H]5CO[C@@H](C)O[C@H]5[C@H](O)[C@H]3O)C3COC(=O)[C@@H]32)OCO4)cc(OC)c1O (stereo partly drawn) — higher, 244 °C
- FC(F)(F)C(F)(F)C(F)(F)F — lower, -148 °C
- Clc1ccc2ncccc2c1 — higher, 43.8 °C
- CCC(=O)C(=O)O — lower, 33 °C
- CCCCCCC(=O)OCCCC — lower, -67.5 °C
- C1CC[C@@H]2NCCC[C@@H]2C1 — lower, -40 °C
- CC(=O)c1ccc([N+](=O)[O-])cc1 — higher, 81.8 °C
- COC(=O)OC — lower, 3 °C
- CCC(Br)CC — lower, -126 °C
- CNC(=O)O/N=C/C(C)(C)S(C)(=O)=O — higher, 141 °C
- CC(=O)CCC=C(C)C — lower, -67.1 °C
- CCCCN(CCCC)C(C(N)=O)c1ccc(OC)cc1 (stereo not drawn) — higher, 134 °C
- CCOC(C)OCC — lower, -100 °C
- Cc1ccc2sc(C)nc2c1 — higher, 38 °C
- CC(C)=CC1C(C(=O)OCN2C(=O)C3=C(CCCC3)C2=O)C1(C)C (stereo not drawn) — higher, 69 °C
- CSc1nc2ccccc2s1 — higher, 44 °C
- C[C@@H]1C[C@H]2[C@@H]3C[C@H](F)C4=CC(=O)C=C[C@]4(C)[C@@]3(F)[C@@H](O)C[C@]2(C)[C@H]1C(=O)CO — higher, 242 °C
- Cc1n[nH]c(=S)[nH]c1=O — higher, 218 °C
- O=C(O)C(Br)Br — higher, 49 °C
- O=C(O)c1ccc(Cl)cc1[N+](=O)[O-] — higher, 144 °C
- Brc1ccc2cccnc2c1 — lower, 34 °C
- NCCNCCNCCN — lower, 12 °C
- ICCI — higher, 83 °C
- Cc1cc(=O)n(-c2ccccc2)[nH]1 — higher, 128 °C

In the case of `C=CC1CCC(O)C(O)C1` (stereo not drawn), the ready biodegradability is reported as “not readily biodegradable”.
With `C1COCCO1` the ready biodegradability was “not readily biodegradable”.
With `CC(=O)CCC=C(C)C` the ready biodegradability was “readily biodegradable”.
For `C/C=C/C=C/C(=O)O`, the ready biodegradability was “readily biodegradable”.
In the case of `CCCCC(CC)C(=O)OCC(COC(=O)C(CC)CCCC)(COC(=O)C(CC)CCCC)COC(=O)C(CC)CCCC` (stereo not drawn), the ready biodegradability is reported as “not readily biodegradable”.
In the case of `CC(C)=CC1C(C(=O)OCN2C(=O)C3=C(CCCC3)C2=O)C1(C)C` (stereo not drawn), the ready biodegradability is reported as “not readily biodegradable”.
For `NCCNCCNCCN`, the ready biodegradability was “not readily biodegradable”.

Point of comparison: `C1COCCO1`, log10 Koc (L/kg) 1.23. Against it:
- CC1=C(C)S(=O)(=O)CCS1(=O)=O — lower, 0.48
- CNC(=O)O/N=C/C(C)(C)S(C)(=O)=O — lower, 0.42

Point of comparison: `Cc1cc(C)c(N)cc1C`, log10 Henry constant (atm·m³/mol) -5.61. Against it:
- C1COCCO1 — higher, -5.32
- O=C(O)C(Br)Br — lower, -8.35

In the case of `C1COCCO1`, the log10 Koa is reported as 3.18.

Same assay, conditions: fish

Point of comparison: `Nc1nc[nH]n1`, log10 BCF 0.49. Against it:
- O=[N+]([O-])c1ccc2[nH]cnc2c1 — within 0.2 log units, 0.4
- c1ccc(Nc2ccc(Nc3ccccc3)cc2)cc1 — higher, 3.12
- C1COCCO1 — lower, -0.3

Work on `O=[N+]([O-])c1ccc2[nH]cnc2c1` yielded a log10 biotransformation half-life (days) of -1.15.

From the OPERA property sets (Mansouri et al. 2018)
